Measurements from paper PMC10609873, “Antidiabetic, Antihyperlipidemic, and Antioxidant Evaluation of Phytosteroids from Notholirion thomsonianum (Royle) Stapf” (Plants, 2023).
Values after ≈ are worked out from the molar mass of the structure shown.

Legend:
[1] = system: alloxan-induced diabetic rats; assay: vital organ weights of fasting rats after treatment; type: in vivo; conditions: after the 28-day experiment; NtSt01 1.0 mg/kg, glibenclamide 0.5 mg/kg
Excerpt: The experimental rats were purchased from the Breeding House of National Institute Health, Islamabad, Pakistan. The average weights of these rats ranged from 220 to 250 g. The animals were handled as per the guidelines of the University of […] animals By-Laws 2008 (Scientific Procedure Issue I) under the approval of the ethical committee via letter No. DREC-140/B. The food, water, and light/dark cycles provided to animals were observed by the ethical committee. The animals were euthanized as per the AVMA guidelines version 2020. The animals were subjected to slow exposure of halothane vapors to induce anesthesia. There was a gradual increase in the dosage of halothane vapors, which eventually euthanized the animals. […] Group 3: […] Group 4: […]

[2] = system: alloxan-induced diabetic rats; assay: body weight of fasting rats during treatment; type: in vivo; conditions: NtSt01 1.0 mg/kg, glibenclamide 0.5 mg/kg
Experimental: Group 3: This group was the alloxan-induced diabetic group, which was treated with 0.5 mg/kg of the standard drug, glibenclamide.
Group 4: This group was the alloxan-induced diabetic group, which was treated with 1.0 mg/kg of NtSt01 intraperitoneally.

[3] = system: alloxan-induced diabetic rats; assay: lipid profile (antilipidemic effect); type: in vivo; conditions: NtSt01 1.0 mg/kg, glibenclamide 0.5 mg/kg; for LDL / S.Cholesterol: reference range 10–54; for S.Triglycerides: reference range 26–145; for HDL: reference range up to 50
Experimental: Standard methods were used for the analysis of total cholesterol, serum triglycerides, low-density lipoprotein (LDL), and high-density lipoprotein (HDL). Briefly, […] of serum sample was added to […] solution of triglyceride. The mixture was incubated for 10 min at 37 °C and the absorbance was recorded at 546 nm. To monitor blood cholesterol, diagnostic kits were utilized following the specifications of the manufacturer. […] For HDL concentration determination, 200 µL of serum sample and 500 µL of HDL solution were combined, and the mixture was allowed to stand at room temperature for 5 min. Again, the mixture was mixed and subjected to further centrifugation for 5 min, followed by supernatant collection. Then, 50 µL of supernatant of HDL was added to 500 µL of solution of cholesterol; the mixture was incubated at 37 °C for 5 min. Then, at 546 nm, the sample absorbance was measured. Similarly, LDL was determined in all groups following the manufacturer’s specifications. LDL = Total cholesterol […] − Triglycerides/5(4)

[4] = system: alloxan-induced diabetic rats; assay: renal and liver function tests (biochemical profile of blood); conditions: NtSt01 1.0 mg/kg, standard glibenclamide; for S.Creatinine: reference range 0.4–0.8; for SGPT(ALT): reference range 17–30; for S.ALK.Phosphatase: reference range 30–130; for S.bilurubin: reference range up to 1.0
Experimental: Renal functions tests were performed to determine blood urea and serum creatinine [38]. To determine blood urea, enzyme reagent 1 (1000 µL) and 10 µL of serum were mixed together and incubated for 5 min at 25 °C, followed by the addition of 1000 µL of reagent 2 to the mixture. After 5 min, the absorbance was recorded at 578 nm.
Serum glutamate pyruvate transaminase (SGPT/ALT), alkaline phosphatase (ALP), and bilirubin tests were performed following standard protocols using micro lab 300 and tecno plus biochemistry analyzers [39]. To perform the SGPT/ALT test, 50 µL of serum sample was added to 500 µL of reagent (400 µL of reagent 1 and 100 µL of reagent 2). […] To determine ALP, a kit was used following the manufacturer’s specifications: 10 µL of serum sample was added to 500 µL of reagent (400 µL of reagent 1 and 100 µL of reagent 2). […] Similarly, the concentration of bilirubin was evaluated using standard protocols. Four types of reagents, R1, R2, R3, and R4, were used in this test. R2 (25 µL) was added to R1 (100 µL). After this, 100 µL of serum sample and 500 µL of R3 were added and allowed to stand at 25 °C for 5 min. Then, 500 µL of R4 was added; at 25 °C for 5 min, the mixture was incubated. The absorbance of the sample was recorded at 546 nm.

α-amylase = assay: in vitro α-amylase inhibition; type: biochemical
Experimental: The inhibitory activity of our compounds against alpha-amylase enzymes was determined as per the previously reported protocols. Test samples of 100 µL were mixed with an enzyme solution (200 µL) and 100 µL of phosphate buffer (pH 6.9, 2 mM). The mixture was then incubated at 25 °C for 20 min, followed by the addition of 100 µL of starch solution (1%). The same procedure was followed for positive controls, where phosphate buffer was added instead of […] (200 µL). After 5 min of incubation, 3,5-dinitrosalicylic acid reagent (500 µL) was added to the test samples and control group. The mixtures were incubated again for 10 min; at 580 nm, the absorbance was recorded using a spectrophotometer. The alpha-amylase percent inhibition was calculated as:(2) % Amylase inhibition=1−Test sample abs./Control abs.×100

α-glucosidase = α-glucosidase (Saccharomyces cerevisiae, UniProt P53341); assay: in vitro α-glucosidase inhibition; type: biochemical
Experimental: The alpha-glucosidase inhibitory effects of our compounds were determined via a reported protocol. Sample dilutions (50 µL) and 100 µL of α-glucosidase solution (0.5 U/mL) were mixed. Then, 600 μL of phosphate buffer (0.1 M, pH 6.9) was added, and the mixture was incubated at 37 °C for 15 min. After this, 5 mM substrate (p-nitrophenyl α-D-glucopyranoside) solution (20 µL) in 0.1 M phosphate buffer (pH 6.9) was added and again incubated under the same conditions. Sodium carbonate was added to stop the reaction; at 405 nm, the absorbance was noted using a spectrophotometer. A mixture without α-glucosidase served as the blank, and a mixture without the test compound served as the control. The percent enzyme inhibition was calculated as:(1) % Alpha glucosidase inhibition=Control abs.−Sample abs./Control abs.×100

[5] = DPPH free radical scavenging assay
Experimental: To evaluate the antioxidant potential of our compounds, the DPPH free radical scavenging assay developed by Brand William was used. The DPPH solution was made by dissolving 20 mg of DPPH in 100 mL of methanol, and its absorbance at 517 nm was adjusted to 0.75. Then, 2 mL of DPPH solution was added to 2 mL of sample dilutions ranging from 31.25 to 500 µg/mL, and the mixture was incubated at room temperature in the dark for 15 min. […] (3) % Inhibition=Control abs.−Sample abs./Control abs.×100

rats = assay: acute toxicity study in rats; type: in vivo; conditions: dose started at 200 and increased up to 2000 mg/kg body weight
Experimental: In experimental animals, acute toxicity studies were performed to determine the safe dose of our test compounds for in vivo studies.

Sequence of α-glucosidase (P53341 whole entry): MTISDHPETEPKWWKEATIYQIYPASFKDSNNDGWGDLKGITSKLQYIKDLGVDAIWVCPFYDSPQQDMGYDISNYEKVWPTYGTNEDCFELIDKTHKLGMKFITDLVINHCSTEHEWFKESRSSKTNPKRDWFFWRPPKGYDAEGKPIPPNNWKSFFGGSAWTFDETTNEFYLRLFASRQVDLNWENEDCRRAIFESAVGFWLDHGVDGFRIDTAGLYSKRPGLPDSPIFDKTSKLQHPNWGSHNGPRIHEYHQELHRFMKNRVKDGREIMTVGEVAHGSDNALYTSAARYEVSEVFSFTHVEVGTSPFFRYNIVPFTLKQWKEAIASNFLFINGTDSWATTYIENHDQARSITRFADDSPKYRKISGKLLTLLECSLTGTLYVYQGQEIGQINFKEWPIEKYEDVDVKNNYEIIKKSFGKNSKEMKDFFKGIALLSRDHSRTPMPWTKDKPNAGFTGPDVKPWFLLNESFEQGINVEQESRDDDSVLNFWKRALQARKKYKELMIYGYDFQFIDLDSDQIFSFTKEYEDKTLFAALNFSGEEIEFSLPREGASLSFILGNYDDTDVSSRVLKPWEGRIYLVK

Compound | Heart weight [1] | Kidney weight [1] | Liver weight [1] | Pancreas weight [1] | body weight ([2]; Day 1) | body weight ([2]; Day 7) | body weight ([2]; Day 14) | body weight ([2]; Day 21) | body weight ([2]; Day 28) | LDL [3] | S.Cholesterol [3] | S.Triglycerides [3] | HDL [3] | S.Creatinine [4] | SGPT(ALT) [4] | S.ALK.Phosphatase [4] | S.bilurubin [4] | Percent Inhibition (Mean ± SEM) (α-amylase; 31.25 μg/mL) | Percent Inhibition (Mean ± SEM) (α-amylase; 62.50 μg/mL) | Percent Inhibition (Mean ± SEM) (α-amylase; 500 μg/mL) | also measured
COc1ccc(Cl)cc1C(=O)NCCc1ccc(S(=O)(=O)NC(=O)NC2CCCCC2)cc1 [Glibenclamide, glibenclamide, reference compound] | 0.90 ± 0.02 g | 0.99 ± 0.16 g | 9.21 ± 0.66 g | 0.84 ± 0.21 g | 235 ± 1.36 g | 236 ± 1.37 g | 239 ± 0.67 g | 244 ± 2.38 g | 249 ± 3.18 g | 34.16 ± 2.66 | 59.98 ± 0.99 | 112 ± 0.99 | 32.55 ± 2.35 | 0.43 ± 0.01 mg/dL | 37 ± 1.11 U/L | 125 ± 1.22 U/L | 0.81 ± 0.03 mg/dL | – | – | – | –
CCC(C=CC(C)C1CCC2C3C=CC4=CC(OC(C)=O)CCC4(C)C3CCC12C)C(C)C (stereo not drawn) [NtSt01, 3-β-Acetoxystigmasta-4,6,22-triene] | 1.04 ± 0.13 g | 1.01 ± 0.15 g | 9.83 ± 0.92 g | 0.92 ± 0.12 g | 238 ± 0.33 g | 240 ± 0.49 g | 242 ± 1.04 g | 245 ± 1.11 g | 246 ± 0.11 g | 48.85 ± 1.08 | 77.45 ± 1.72 | 125 ± 3.65 | 38.10 ± 1.64 | 0.6 ± 0.02 mg/dL | 32 ± 0.25 U/L | 134 ± 2.33 U/L | 0.72 ± 0.77 mg/dL | 62.35 ± 1.78% | 67.63 ± 2.51% | 80.03 ± 2.11% | Percent Inhibition (Mean ± SEM) (α-amylase; 125 μg/mL): 71.63 ± 0.92%; Percent Inhibition (Mean ± SEM) (α-amylase; 250 μg/mL): 75.52 ± 0.96%; IC50 (α-amylase; α-amylase): 4.17 µg/mL (≈ 9.21 µM); potency relative to NtSt02 (from IC50 values) (α-amylase; α-amylase): eleven folds more potent than NtSt02; potency relative to NtSt02 (from IC50 values) (α-glucosidase; α-glucosidase): three times more potent than NtSt02; IC50 [5]: 142.76 µg/mL (≈ 315 µM); Percent Inhibition (Mean ± SEM) ([5]; 31.25 μg/mL): 37.25 ± 2.66%; Percent Inhibition (Mean ± SEM) ([5]; 62.50 μg/mL): 42.53 ± 0.69%; Percent Inhibition (Mean ± SEM) ([5]; 125 μg/mL): 47.08 ± 2.41%; Percent Inhibition (Mean ± SEM) ([5]; 250 μg/mL): 55.79 ± 0.92%; Percent Inhibition (Mean ± SEM) ([5]; 500 μg/mL): 61.05 ± 2.05%; acute toxicity observation (rats): safe and no morbidity, mortality or irritation was observed
CC(C)CCC[C@@H](C)[C@H]1CC[C@H]2[C@@H]3C=CC4=C[C@@H](OC(=O)c5ccccc5)CC[C@]4(C)[C@H]3CC[C@]12C [NtSt02, 4,6-cholestadien-3beta-ol, benzoate] | – | – | – | – | – | – | – | – | – | – | – | – | – | – | – | – | – | 46.84 ± 0.67% | 53.10 ± 2.05% | 74.99 ± 1.53% | Percent Inhibition (Mean ± SEM) (α-amylase; 125 μg/mL): 60.04 ± 0.86%; Percent Inhibition (Mean ± SEM) (α-amylase; 250 μg/mL): 64.32 ± 1.85%; IC50 (α-amylase; α-amylase): 46.73 µg/mL (≈ 95.6 µM); IC50 [5]: 223.43 µg/mL (≈ 457 µM); Percent Inhibition (Mean ± SEM) ([5]; 31.25 μg/mL): 28.52 ± 2.63%; Percent Inhibition (Mean ± SEM) ([5]; 62.50 μg/mL): 33.08 ± 1.17%; Percent Inhibition (Mean ± SEM) ([5]; 125 μg/mL): 42.99 ± 2.70%; Percent Inhibition (Mean ± SEM) ([5]; 250 μg/mL): 52.01 ± 1.07%; Percent Inhibition (Mean ± SEM) ([5]; 500 μg/mL): 59.12 ± 1.96%
C[C@H]1O[C@H](O[C@H]2[C@H](O)[C@@H](O)[C@@H](O[C@H]3[C@H](O)[C@@H](O)C(O)O[C@@H]3CO)O[C@@H]2CO)[C@H](O)[C@@H](O)[C@@H]1N[C@H]1C=C(CO)[C@@H](O)[C@H](O)[C@H]1O (stereo partly drawn) [acarbose, reference compound] | – | – | – | – | – | – | – | – | – | – | – | – | – | – | – | – | – | – | – | 91.01 ± 1.36% | Percent Inhibition (Mean ± SEM) (α-glucosidase): 92.65 ± 0.55%
